Reference: PMC6934184, “Selective DNA-PKcs inhibition extends the therapeutic index of localized radiotherapy and chemotherapy” (The Journal of Clinical Investigation, 2019)

Molecular target: T1, CSNK1A1 (CK1 alpha 1) (Homo sapiens, UniProt P48729)
T1 construct: purchased Thermo Fisher Scientific (Life Technologies) SelectScreen
Experiment: SelectScreen Z'LYTE
Type: biochemical
In short: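 Percent values come from Thermo SelectScreen profiling of NU5455, combining activity and binding assays. CSF1R was run in Z'LYTE format at Km app ATP, and CAMK1 in Adapta format with ATP listed at 10.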

T1 sequence (P48729 whole entry): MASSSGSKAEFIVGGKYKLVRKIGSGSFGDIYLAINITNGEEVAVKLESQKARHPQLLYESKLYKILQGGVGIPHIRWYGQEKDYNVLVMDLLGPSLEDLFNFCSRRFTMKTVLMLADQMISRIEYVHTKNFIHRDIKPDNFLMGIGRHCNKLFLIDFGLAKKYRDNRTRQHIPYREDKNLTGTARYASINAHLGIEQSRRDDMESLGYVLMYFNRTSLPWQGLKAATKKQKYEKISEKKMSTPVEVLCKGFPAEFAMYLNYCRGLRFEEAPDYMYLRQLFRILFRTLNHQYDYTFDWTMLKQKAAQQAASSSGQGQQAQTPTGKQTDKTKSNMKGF

`CN(C(=O)CN1CCOCC1)c1ccc2sc3c(-c4cccc5c(=O)cc(N6CC7CCC(C6)O7)oc45)cccc3c2c1` [NU5455] gave an inhibition at 1 µM of 0.3%.
